Patent publication US20100267555A1, “Fungicidal mixtures II” (BASF SE, priority 2007, published 2010)
Where two headings read alike, the source gives them in different places.

Columns and labels:
Assay type in all cases: cell-based
Septoria tritici = experiment: Activity against leaf blotch on wheat caused by Septoria tritici in the microtiter test (Septtr); settings: single active compound, day 7 after inoculation
Pyricularia oryzae = experiment: microbe, parasite or virus in culture; settings: 7 days after inoculation; for inhibition of growth at 4 ppm: read-out: Observed efficacy, single active compound, 4 ppm; for inhibition of growth at 16 ppm: read-out: Observed efficacy, single active compound, 16 ppm; for inhibition of growth at 0.063 ppm: read-out: Observed efficacy, single active compound, 0.063 ppm; for Observed efficacy: single active compound
Phytophthora infestans = settings: single active compound, 7 days after inoculation

Q: How did the Observed efficacy (Septoria tritici; 0.063 ppm) turn out when `Fc1ccc([C@]2(Cn3cncn3)O[C@H]2c2ccccc2Cl)cc1` (racemic) [Epoxiconazole, (2RS,3SR)-1-[3-(2-chlorophenyl)-2,3-epoxy-2-(4-fluorophenyl)propyl]-1H-1,2,4-triazole, reference compound] was run?
A: 50%

Q: `O=C(OCc1cccc(C(F)(F)F)c1)[C@H](c1ccc(F)cc1F)[C@@H](O)c1cccnc1` (stereo in doubt) [I.57-RS, 3-trifluoromethylphenylmethyl 3-hydroxy-2-(2,4-difluorophenyl)-3-(3-pyridyl)propanoate] was tested. Which inhibition of growth at 4 ppm (Pyricularia oryzae; Pyricularia oryzae, 168 h) did it give?
A: 0%

Q: And the inhibition of growth at 16 ppm (Pyricularia oryzae; Pyricularia oryzae, 168 h)?
A: 9%

Q: And the Observed efficacy (Septoria tritici; 4 ppm)?
A: 26%

Q: And the Observed efficacy (Phytophthora infestans; 4 ppm)?
A: 3%

Q: With `O=C(OCc1cccc(C(F)(F)F)c1)[C@H](c1cccs1)[C@@H](O)c1cccnc1` (stereo in doubt) [I.59-RS, 3-trifluoromethylphenylmethyl 3-hydroxy-2-(2-thienyl)-3-(3-pyridyl)propanoate] as the compound, how does the inhibition of growth at 0.063 ppm (Pyricularia oryzae; Pyricularia oryzae, 168 h) read?
A: 1%

Q: And the inhibition of growth at 16 ppm (Pyricularia oryzae; Pyricularia oryzae, 168 h)?
A: 14%

Q: What about the Observed efficacy (Pyricularia oryzae; 4 ppm) of the same compound?
A: 0%

Q: What about the Observed efficacy (Septoria tritici; 4 ppm) of the same compound?
A: 14%

Q: And the Observed efficacy (Phytophthora infestans; 4 ppm)?
A: 11%

Q: For `COC(=O)Nc1nc2ccccc2[nH]1` [Carbendazim, methyl (1H-benzoimidazol-2-yl)-carbamate, reference compound], which inhibition of growth at 0.25 ppm (Pyricularia oryzae; Pyricularia oryzae, 168 h, read-out: Observed efficacy, single active compound, 0.25 ppm) is on record?
A: 19%

Q: With `N#Cc1c(Cl)c(Cl)c(Cl)c(C#N)c1Cl` [Chlorothalonil, 2,4,5,6-tetrachloroisophthalonitrile, reference compound] as the compound, how does the Observed efficacy (Phytophthora infestans; 0.25 ppm) read?
A: 16%

Q: For `Cc1ccc(-c2c(Cl)nc(C#N)n2S(=O)(=O)N(C)C)cc1` [Cyazofamid, 4-chloro-2-cyano-N,N-dimethyl-5-(4-methylphenyl)-1H-imidazole-1-sulfonamide, reference compound], which Observed efficacy (Phytophthora infestans; 0.016 ppm) is on record?
A: 56%

Q: Which inhibition of growth at 4 ppm (Pyricularia oryzae; Pyricularia oryzae, 168 h) does the source give for `Cc1cc(C2CC2)nc(Nc2ccccc2)n1` [Cyprodinil, (4-cyclopropyl-6-methylpyrimidin-2-yl)phenylamine, reference compound] here?
A: 71%

Q: With `CO/N=C(/C1=NOCCO1)c1ccccc1Oc1ncnc(Oc2ccccc2Cl)c1F` [Fluoxastrobin, (E)-{2-[6-(2-chlorophenoxy)-5-fluoropyrimidin-4-yloxy]phenyl}(5,6-dihydro-1,4,2-dioxazin-3-yl)methanone O-methyloxime, reference compound] as the compound, how does the inhibition of growth at 0.063 ppm (Pyricularia oryzae; Pyricularia oryzae, 168 h) read?
A: 57%

Q: And the Observed efficacy (Septoria tritici; 0.25 ppm)?
A: 58%

Q: Which Observed efficacy (Septoria tritici; 0.063 ppm) does the source give for `O=C(OCc1cccc(C(F)(F)F)c1)[C@H](c1ccc(F)cc1F)[C@@H](O)c1cccnc1` [I.57-RR, 3-trifluoromethylphenylmethyl 3-hydroxy-2-(2,4-difluorophenyl)-3-(3-pyridyl)propanoate] here?
A: 4%

Q: What about the Observed efficacy (Phytophthora infestans; 0.016 ppm) of the same compound?
A: 0%

Q: Which results are given for `O=C(OCc1cccc(C(F)(F)F)c1)[C@H](c1cccs1)[C@@H](O)c1cccnc1` [I.59-RR, 3-trifluoromethylphenylmethyl 3-hydroxy-2-(2-thienyl)-3-(3-pyridyl)propanoate]?
A: inhibition of growth at 4 ppm (Pyricularia oryzae; Pyricularia oryzae, 168 h): 0%; Observed efficacy (Pyricularia oryzae; 16 ppm): 8%; Observed efficacy (Phytophthora infestans; 4 ppm): 7%

Q: How did the inhibition of growth at 4 ppm (Pyricularia oryzae; Pyricularia oryzae, 168 h) turn out when `CC(C)NC(=O)N1CC(=O)N(c2cc(Cl)cc(Cl)c2)C1=O` [Iprodione, N-isopropyl-3-(3,5-dichlorophenyl)-2,4-dioxoimidazolidine-1-carboxamide, reference compound] was run?
A: 18%

Q: For `Cc1ccc(C(C)NC(=O)[C@@H](NC(=O)OC(C)C)C(C)C)cc1` (stereo partly drawn) [Iprovalicarb, isopropyl [(1S)-2-methyl-1-(1-p-tolylethylcarbamoyl)propyl]carbamate, reference compound], which Observed efficacy (Phytophthora infestans; 0.25 ppm) is on record?
A: 9%

Q: How did the inhibition of growth at 0.063 ppm (Pyricularia oryzae; Pyricularia oryzae, 168 h) turn out when `COC=C(C(=O)OC)c1ccccc1COc1cccc(C(F)(F)F)n1` [Picoxystrobin, methyl 3-methoxy-2-[2-(6-trifluoromethylpyridin-2-yloxymethyl)phenyl]acrylate, reference compound] was run?
A: 49%

Q: Which inhibition of growth at 4 ppm (Pyricularia oryzae; Pyricularia oryzae, 168 h) does the source give for `OC(Cc1ccccc1Cl)(Cn1nc[nH]c1=S)C1(Cl)CC1` (stereo not shown) [Prothioconazol, 2-[2-(1-chlorocyclopropyl)-3-(2-chlorophenyl)-2-hydroxypropyl]-2,4-dihydro-[1,2,4]triazole-3-thione, reference compound] here?
A: 15%
